“And” between values parts separate entries of the source, which are not always exact repeats. Identical values can stand only once. Inconclusive results and toxic doses are left out. Rule as the data show it: active = T/C of 150% or more; inactive = T/C below 125%.
Tested on: L1210 leukemia ip in BDF1 mice, survival T/C
Assay: NCI In Vivo Anticancer Drug Screen. Data for tumor model L1210 Leukemia (intraperitoneal) in B6D2F1 (BDF1) mice
Details: endpoint: mean survival time, higher = longer survival
Method in brief: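 Tumor was transplanted into mice, which were then dosed with test compound or vehicle alone. Survival was recorded for each group, and the treated figure was expressed relative to the control figure.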

[1] = dose: 100.0 mg/kg/injection, schedule: Q04DX003 (ip), vehicle: saline with Tween-80
[2] = dose: 100.0 mg/kg/injection, schedule: Q01DX001 (ip), vehicle: carboxymethylcellulose (CMC)
[3] = dose: 200.0 mg/kg/injection, schedule: Q01DX001 (ip), vehicle: carboxymethylcellulose (CMC)
[4] = dose: 100.0 mg/kg/injection, schedule: Q01DX009 (ip), vehicle: Klucel (hydroxypropylcellulose) (HPC)

Measured: T/C

CNc1nc2c(N)ncnc2n1C1OC(CO)C(O)C1O (stereo unspecified)
inactive: dose: 12.5 mg/kg/injection, schedule: Q04DX002 (ip), vehicle: saline 100 % of control | dose: 25.0 mg/kg/injection, schedule: Q04DX002 (ip), vehicle: saline 103 % of control | dose: 25.0 mg/kg/injection, schedule: Q04DX002 (ip), vehicle: suspension in saline 104 % of control | dose: 50.0 mg/kg/injection, schedule: Q01DX001 (ip), vehicle: saline 104 % of control | dose: 50.0 mg/kg/injection, schedule: Q04DX002 (ip), vehicle: saline 113 % of control | dose: 50.0 mg/kg/injection, schedule: Q04DX002 (ip), vehicle: suspension in saline 106 % of control | dose: 100.0 mg/kg/injection, schedule: Q01DX001 (ip), vehicle: saline 110 % of control | dose: 100.0 mg/kg/injection, schedule: Q04DX002 (ip), vehicle: suspension in saline 106 % of control

Cc1cc2nc3c(=O)[nH]c(=O)nc-3n(CC(O)C(O)C(O)C(O)CO)c2cc1C (stereo unspecified)
inactive: dose: 14.12 mg/kg/injection, schedule: Q01DX Z (ip), vehicle: carboxymethylcellulose (CMC) 91 % of control | dose: 25.0 mg/kg/injection, schedule: Q01DX015 (ip), vehicle: saline 100 % of control | dose: 28.25 mg/kg/injection, schedule: Q01DX Z (ip), vehicle: carboxymethylcellulose (CMC) 93 % of control | dose: 50.0 mg/kg/injection, schedule: Q01DX015 (ip), vehicle: saline 96 % of control | dose: 56.5 mg/kg/injection, schedule: Q01DX Z (ip), vehicle: carboxymethylcellulose (CMC) 90 % of control | dose: 100.0 mg/kg/injection, schedule: Q01DX015 (ip), vehicle: saline 96 % of control | dose: 100.0 mg/kg/injection, schedule: Q01DX Z (ip), vehicle: carboxymethylcellulose (CMC) 97 % of control | dose: 113.0 mg/kg/injection, schedule: Q01DX Z (ip), vehicle: carboxymethylcellulose (CMC) 89 % of control | dose: 200.0 mg/kg/injection, schedule: Q01DX015 (ip), vehicle: saline 97 % of control and 98 % of control | dose: 200.0 mg/kg/injection, schedule: Q01DX Z (ip), vehicle: carboxymethylcellulose (CMC) 97 % of control | dose: 400.0 mg/kg/injection, schedule: Q01DX001 (ip), vehicle: acetone 103 % of control | dose: 400.0 mg/kg/injection, schedule: Q01DX015 (ip), vehicle: saline 92 % of control | dose: 400.0 mg/kg/injection, schedule: Q01DX Z (ip), vehicle: carboxymethylcellulose (CMC) 94 % of control | dose: 800.0 mg/kg/injection, schedule: Q01DX001 (ip), vehicle: acetone 95 % of control | dose: 800.0 mg/kg/injection, schedule: Q01DX Z (ip), vehicle: carboxymethylcellulose (CMC) 90 % of control

CCCCC(CSC#N)SC#N (stereo unspecified)
inactive: dose: 3.13 mg/kg/injection, schedule: Q01DX009 (ip), vehicle: saline with Tween-80 94 % of control | dose: 6.25 mg/kg/injection, schedule: Q01DX009 (ip), vehicle: saline with Tween-80 94 % of control | dose: 12.5 mg/kg/injection, schedule: Q01DX009 (ip), vehicle: saline with Tween-80 94 % of control

NC(=O)C1(c2ccccc2)CCN(Cc2ccccc2)CC1
inactive: dose: 25.0 mg/kg/injection, schedule: Q01DX009 (ip), vehicle: saline with Tween-80 100 % of control | dose: 50.0 mg/kg/injection, schedule: Q01DX009 (ip), vehicle: saline with Tween-80 98 % of control | dose: 50.0 mg/kg/injection, schedule: Q04DX003 (ip), vehicle: saline with Tween-80 95 % of control | dose: 100.0 mg/kg/injection, schedule: Q01DX009 (ip), vehicle: saline with Tween-80 94 % of control | [1] 92 % of control

NC(=O)c1ncn(C2OC(CO)C(O)C2O)c1C(N)=O (stereo unspecified)
inactive: [2] 104 % of control | [3] 123 % of control

Cc1ccc(OC(=O)C(C(=O)Oc2ccc(C)cc2)C(=O)Oc2ccc(C)cc2)cc1
inactive: dose: 25.0 mg/kg/injection, schedule: Q01DX001 (ip), vehicle: saline with Tween-80 104 % of control | dose: 50.0 mg/kg/injection, schedule: Q01DX001 (ip), vehicle: saline with Tween-80 101 % of control | dose: 100.0 mg/kg/injection, schedule: Q01DX001 (ip), vehicle: saline with Tween-80 95 % of control and 98 % of control

O=c1cc(CN(CCO)CCO)[nH]c(=O)[nH]1
inactive: dose: 100.0 mg/kg/injection, schedule: Q04DX003 (ip), vehicle: saline 93 % of control | dose: 200.0 mg/kg/injection, schedule: Q04DX003 (ip), vehicle: saline 95 % of control | dose: 400.0 mg/kg/injection, schedule: Q04DX003 (ip), vehicle: saline 93 % of control

NC(=S)NNc1ccccc1
inactive: dose: 100.0 mg/kg/injection, schedule: Q04DX002 (ip), vehicle: saline with Tween-80 105 % of control | dose: 200.0 mg/kg/injection, schedule: Q04DX002 (ip), vehicle: saline with Tween-80 105 % of control

Nc1ccc(O)c2c1C(=O)c1ccccc1C2=O
inactive: [4] 103 % of control | dose: 100.0 mg/kg/injection, schedule: Q04DX002 (ip), vehicle: Klucel (hydroxypropylcellulose) (HPC) 104 % of control | dose: 200.0 mg/kg/injection, schedule: Q01DX009 (ip), vehicle: Klucel (hydroxypropylcellulose) (HPC) 92 % of control | dose: 200.0 mg/kg/injection, schedule: Q04DX002 (ip), vehicle: Klucel (hydroxypropylcellulose) (HPC) 115 % of control | dose: 400.0 mg/kg/injection, schedule: Q01DX009 (ip), vehicle: Klucel (hydroxypropylcellulose) (HPC) 96 % of control | dose: 400.0 mg/kg/injection, schedule: Q04DX002 (ip), vehicle: Klucel (hydroxypropylcellulose) (HPC) 100 % of control

CNc1nc2c(=O)[nH]c(N)nc2n1C1OC(CO)C(O)C1O (stereo unspecified)
inactive: dose: 50.0 mg/kg/injection, schedule: Q01DX001 (ip), vehicle: carboxymethylcellulose (CMC) 101 % of control | [2] 104 % of control | [3] 95 % of control | dose: 400.0 mg/kg/injection, schedule: Q01DX001 (ip), vehicle: carboxymethylcellulose (CMC) 89 % of control

CC(C)CCCC(C)C1CCC2C3CC(=O)NC4CC(Br)CCC4(C)C3CCC12C (stereo unspecified)
inactive: dose: 100.0 mg/kg/injection, schedule: Q04DX003 (ip), vehicle: acetone 93 % of control | dose: 200.0 mg/kg/injection, schedule: Q04DX003 (ip), vehicle: acetone 102 % of control | dose: 400.0 mg/kg/injection, schedule: Q04DX003 (ip), vehicle: acetone 98 % of control

Nc1ncnc(N)c1NC(=O)c1ccc(OCCCCOc2ccccc2)c(Cl)c1
inactive: [1] 101 % of control | dose: 200.0 mg/kg/injection, schedule: Q04DX003 (ip), vehicle: saline with Tween-80 102 % of control | dose: 400.0 mg/kg/injection, schedule: Q04DX003 (ip), vehicle: saline with Tween-80 96 % of control

O=c1oc2c3ccccc3c3ccccc3c2o1
inactive: dose: 25.0 mg/kg/injection, schedule: Q01DX009 (ip), vehicle: Klucel (hydroxypropylcellulose) (HPC) 113 % of control | dose: 50.0 mg/kg/injection, schedule: Q01DX009 (ip), vehicle: Klucel (hydroxypropylcellulose) (HPC) 103 % of control | [4] 94 % of control

Cc1cc(C2=NCCN2)ccc1NC(=O)c1ccc(C(=O)Nc2ccc(C3=NCCN3)cc2C)cc1
inactive: dose: 15.0 mg/kg/injection, schedule: Q01DX Z (ip), vehicle: saline 100 % of control | dose: 30.0 mg/kg/injection, schedule: Q01DX Z (ip), vehicle: saline 106 % of control | dose: 60.0 mg/kg/injection, schedule: Q01DX Z (ip), vehicle: saline 110 % of control

CS(=O)(=NC(=S)Nc1ccccc1)c1ccccc1 (stereo unspecified)
inactive: dose: 75.0 mg/kg/injection, schedule: Q01DX009 (ip), vehicle: saline 97 % of control | dose: 150.0 mg/kg/injection, schedule: Q01DX009 (ip), vehicle: saline 100 % of control | dose: 300.0 mg/kg/injection, schedule: Q01DX009 (ip), vehicle: saline 100 % of control

Reference: PubChem BioAssay AID248 (DTP/NCI, 2004)
